Source: publication PMC4014597 (PLoS ONE, 2014)

How the values were obtained:
human DNMT1 (hDNMT1) = molecular target: T1, human DNMT1 (hDNMT1) (Homo sapiens, UniProt P26358); test: DNMT1 assay (radioactive Flashplate methylation assay); type: biochemical; details: 100 µM compound; for inhibition at 100 µM: read-out: % inhibition ± SD hDNMT1
T1 construct: His; made in house
Protocol: His-DNMT1 (182 kDa, human) was cloned, expressed and purified as described by Lee et al.. The DNMT1 assay was performed according to Gros et al.. Briefly, the reaction was started by addition of 90 nM of DNMT1 on a mix containing the tested compound (up to 1% DMSO), 1 µM of a AdoMet/[methyl-^3H]-AdoMet mix in a ratio of 3-to-1 (isotopic dilution 1*:3) and 0.3 µM of biotinylated DNA duplex in 10 µL final volume. The reaction was incubated at 37°C for 2 h in reaction buffer (20 mM HEPES pH 7.2, 1 mM EDTA, 50 mM KCl, 25 µg/mL BSA). 8 µL are then transferred into a streptavidin-coated Flashplate PLUS (PerkinElmer) containing 190 µL of 20 µM AdoHcy (Sigma-Aldrich) in 50 mM Tris-HCl pH 7.4. The Flashplate was agitated at room temperature for 1 h, washed three times with 200 µL of 0.05% Tween-20 in 50 mM Tris-HCl pH 7.4 and read in 200 µL of 50 mM Tris-HCl pH 7.4 on TopCount NXT (PerkinElmer). Percentages of inhibition were calculated with the same formula as in DNMT3A assay.

[1] = molecular target: T2, C-terminal catalytic domain of human DNMT3A (hDNMT3A) (Homo sapiens, UniProt Q9Y6K1); test: DNMT3A assay (restriction-based fluorescence assay); type: biochemical; details: for inhibition at 100 µM: 100 µM compound; for inhibition at 100 µM / inhibition at 10 µM / inhibition at 32 µM / inhibition at 3.2 µM: read-out: % inhibition ± SD hDNMT3A
T2 construct: catalytic domain of human DNMT3A (residues 623–908), produced as described; made in house
Text: DNMT3A enzyme inhibition was adapted from the restriction-based fluorescence assay protocol described in Ceccaldi et al.. Briefly, a 5'-labelled biotin oligonucleotide is hybridized to its complementary strand labelled with 6-carboxyfluorescein at the 3′-end into a 384 well microplate (black Optiplates; Perkin Elmer) pre-coated with avidin. The duplex contains a unique CpG site overlapping with a restriction site of a methylation sensitive restriction enzyme. The C-terminal catalytic domain of human DNMT3A (residues 623–908), produced as described, was added in each well (200 ng/well) and mixed with the chemical compounds at desired concentrations and freshly prepared AdoMet (20 µM final concentration) to start the reaction in a total volume of 50 µL. After 1 hour incubation at 37°C each well were washed three times with PBS, 0.05% Tween-20, 500 mM NaCl and three more times with PBST. Specific fluorescent signals were detected with the methylation-sensitive restriction enzyme HpyCH4IV (NEB) as described and measured on a Perkin Elmer Envision detector. The percentage of inhibition is reported. The formula used to calculate the percentage of inhibition is [(X-Y)/X]×100, where X is the signal determined in the absence of the inhibitor and Y is the signal obtained in the presence of the inhibitor. […] The non-linear regression fittings with sigmoidal dose-response (variable slope) were performed with GraphPad Prism 4.03 (GraphPad Software).

[2] = molecular target: T3, human G9a-like protein (GLP) (Homo sapiens, UniProt Q9H9B1); test: GLP assay (histone methylation inhibition); type: biochemical; details: 8 μM inhibitor; read-out: Percent of GLP inhibition
T3 construct: catalytic SET domain (residues 734-1235; pXC758) were purified as described; made in house
T3 sequence (Q9H9B1 765-1266): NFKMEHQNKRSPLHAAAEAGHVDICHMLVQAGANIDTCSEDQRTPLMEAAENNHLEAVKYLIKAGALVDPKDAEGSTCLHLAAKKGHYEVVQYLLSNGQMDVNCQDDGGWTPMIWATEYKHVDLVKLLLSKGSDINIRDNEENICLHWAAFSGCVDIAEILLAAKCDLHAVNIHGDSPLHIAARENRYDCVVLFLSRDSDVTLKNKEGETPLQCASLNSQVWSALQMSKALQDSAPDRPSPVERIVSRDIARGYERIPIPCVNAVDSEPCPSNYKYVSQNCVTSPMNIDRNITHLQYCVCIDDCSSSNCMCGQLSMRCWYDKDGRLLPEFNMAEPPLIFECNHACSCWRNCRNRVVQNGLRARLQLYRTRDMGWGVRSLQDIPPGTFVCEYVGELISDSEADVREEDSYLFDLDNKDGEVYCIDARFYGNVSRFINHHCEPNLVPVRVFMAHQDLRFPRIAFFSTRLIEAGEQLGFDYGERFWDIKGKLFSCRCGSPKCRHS
Protocol: GLP Assay. Recombinant human G9a-like protein (GLP) C-terminal fragment containing both the ankyrin repeats and catalytic SET domain (residues 734-1235; pXC758) were purified as described. For histone methylation inhibition, the assay was performed in 20 μL reaction containing 4.6 mM [methyl-^3H]-AdoMet, 50 μg/mL histone from calf thymus (SIGMA), 10 μg/mL (0.17 μM) GLP, 100 mM KCl, 5 mM (DTT) and 50 mM Tris-HCl pH 8.5. GLP was pre-incubated with AdoMet and 8 µM inhibitors for 5 min at 30 °C before the addition of the histone substrate. After incubation (5 min), the reaction was terminated by the addition of 20% trichloroacetic acid (TCA, Fisher Scientific). The reaction mixture was spotted on GF/A paper circles (Whatman), washed three times with 3 mL of 10% TCA and once with 3 mL of ethanol. The dried circles were subjected to liquid-scintillation counting with Cytoscint scintillant.

U-937 cells = system: U-937 cells; design: method as in PMID 24387159; details: 48 h; read-out: IC50 (mean ± SD) cell viability U-937; cited from earlier work
RAJI cells = system: RAJI cells; design: method as in PMID 24387159; details: 48 h; read-out: IC50 (mean ± SD) cell viability RAJI; cited from earlier work
[3] = system: CMV-luc construct in KG-1 cells; test: CMV-luc assay (luciferase re-expression from methylated CMV promoter); type: cell-based; details: 24 h
Human G9a = molecular target: T4, Human G9a (Homo sapiens, UniProt Q96KQ7); test: G9a assay (3H-AdoMet filter-binding); type: biochemical; details: 10-dose IC50 mode, 2-fold serial dilution starting at 400 µM
T4 sequence (Q96KQ7 786-1210 limits assumed): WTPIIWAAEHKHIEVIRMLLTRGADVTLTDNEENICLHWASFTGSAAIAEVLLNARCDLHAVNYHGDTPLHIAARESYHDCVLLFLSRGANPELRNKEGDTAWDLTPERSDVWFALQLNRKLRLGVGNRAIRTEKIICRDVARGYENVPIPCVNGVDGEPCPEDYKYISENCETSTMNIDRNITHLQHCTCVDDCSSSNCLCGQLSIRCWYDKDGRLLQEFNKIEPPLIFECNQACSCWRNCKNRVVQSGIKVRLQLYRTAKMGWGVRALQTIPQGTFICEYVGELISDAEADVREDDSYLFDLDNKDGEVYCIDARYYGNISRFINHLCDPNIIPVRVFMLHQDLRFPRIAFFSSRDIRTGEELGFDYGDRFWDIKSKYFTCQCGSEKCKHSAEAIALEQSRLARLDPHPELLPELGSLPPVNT
Protocol: The reaction buffer was 50 mM Tris-HCl, pH 8.5, 50 mM NaCl, 5 mM MgCl2, 1 mM dithiothreitol (DTT), 1 mM PMSF, and 1% DMSO. Standard substrate concentrations were 5 µM biotinylated H3 (1–21) peptide (AnaSpec) substrate and 0.1 mM AdoMet. For control compound IC50 determinations, the test compounds were diluted in DMSO and then added to the enzyme/substrate mixture in nanoliter amounts by using an acoustic technology (Echo 500; Lab-cyte). The reaction was initiated by the addition of ^3H-AdoMet, and incubated at 30°C for 1 h. The reaction was detected by a filter-binding method. Data analysis was performed using Graph Pad Prism software for curve fits, and GraFit (Erithacus) for global fit of kinetic studies.

T2 sequence (Q9Y6K1 627-912): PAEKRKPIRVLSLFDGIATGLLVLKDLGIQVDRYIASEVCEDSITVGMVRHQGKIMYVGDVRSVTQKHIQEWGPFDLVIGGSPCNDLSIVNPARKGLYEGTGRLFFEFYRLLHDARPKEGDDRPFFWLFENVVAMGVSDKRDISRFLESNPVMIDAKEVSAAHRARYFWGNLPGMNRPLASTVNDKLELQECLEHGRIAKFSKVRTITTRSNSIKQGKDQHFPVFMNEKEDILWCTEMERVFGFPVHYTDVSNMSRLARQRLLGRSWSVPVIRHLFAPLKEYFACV
T1 sequence (P26358 whole entry): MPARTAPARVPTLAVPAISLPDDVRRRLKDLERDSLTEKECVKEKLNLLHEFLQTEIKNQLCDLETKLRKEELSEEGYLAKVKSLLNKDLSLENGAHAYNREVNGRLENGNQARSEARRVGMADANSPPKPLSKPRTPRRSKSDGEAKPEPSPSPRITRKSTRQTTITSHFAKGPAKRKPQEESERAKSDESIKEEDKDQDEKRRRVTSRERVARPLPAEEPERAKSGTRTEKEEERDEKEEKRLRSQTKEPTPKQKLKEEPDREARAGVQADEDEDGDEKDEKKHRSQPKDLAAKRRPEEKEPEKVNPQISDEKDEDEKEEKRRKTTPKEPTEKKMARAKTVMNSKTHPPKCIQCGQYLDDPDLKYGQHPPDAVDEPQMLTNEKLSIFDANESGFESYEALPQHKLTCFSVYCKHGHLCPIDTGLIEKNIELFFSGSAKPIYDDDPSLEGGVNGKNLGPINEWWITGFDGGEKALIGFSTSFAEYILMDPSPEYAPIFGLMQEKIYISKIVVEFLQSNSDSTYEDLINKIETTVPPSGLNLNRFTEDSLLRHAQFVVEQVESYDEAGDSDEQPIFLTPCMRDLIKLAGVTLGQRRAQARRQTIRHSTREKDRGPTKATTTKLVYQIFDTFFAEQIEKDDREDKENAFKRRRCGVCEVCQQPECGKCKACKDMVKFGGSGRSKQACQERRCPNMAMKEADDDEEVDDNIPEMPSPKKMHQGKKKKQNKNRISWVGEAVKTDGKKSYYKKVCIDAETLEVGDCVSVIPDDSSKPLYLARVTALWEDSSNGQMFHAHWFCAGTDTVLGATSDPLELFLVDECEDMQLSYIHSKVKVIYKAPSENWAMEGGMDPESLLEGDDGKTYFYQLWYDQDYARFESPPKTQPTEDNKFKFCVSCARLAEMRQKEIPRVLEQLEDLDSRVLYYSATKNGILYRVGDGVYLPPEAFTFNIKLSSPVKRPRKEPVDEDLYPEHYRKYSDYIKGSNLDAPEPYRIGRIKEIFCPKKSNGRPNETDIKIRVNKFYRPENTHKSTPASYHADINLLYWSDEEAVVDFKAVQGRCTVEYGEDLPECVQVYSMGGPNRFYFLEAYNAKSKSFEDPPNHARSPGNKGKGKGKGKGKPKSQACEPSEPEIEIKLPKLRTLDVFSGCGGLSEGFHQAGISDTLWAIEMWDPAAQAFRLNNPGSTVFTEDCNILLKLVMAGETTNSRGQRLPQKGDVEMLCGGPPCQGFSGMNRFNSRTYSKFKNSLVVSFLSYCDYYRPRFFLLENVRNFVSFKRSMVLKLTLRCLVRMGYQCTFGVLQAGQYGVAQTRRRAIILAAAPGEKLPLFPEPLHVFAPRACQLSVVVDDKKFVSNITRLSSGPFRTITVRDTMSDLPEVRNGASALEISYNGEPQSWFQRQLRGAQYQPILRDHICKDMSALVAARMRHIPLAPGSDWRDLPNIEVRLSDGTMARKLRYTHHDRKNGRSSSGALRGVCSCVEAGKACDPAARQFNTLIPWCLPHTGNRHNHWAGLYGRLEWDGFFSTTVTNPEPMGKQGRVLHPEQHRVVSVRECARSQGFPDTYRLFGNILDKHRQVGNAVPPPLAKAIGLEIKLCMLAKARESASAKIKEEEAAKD

Row | SMILES | inhibition at 100 µM (human DNMT1 (hDNMT1)) | inhibition at 100 µM [1] | inhibition at 10 µM ([1]; 10 µM compound) | inhibition at 32 µM ([1]; 32 µM compound) | melting point | further results
1 | COc1cc2nc(N3CCCN(C)CC3)nc(NC3CCN(Cc4ccccc4)CC3)c2cc1OC [Compound 1, BIX-01294, reference compound] | 30% | 12 ± 3% |  |  |  | % inhibition ± SD hDNMT1 (human DNMT1 (hDNMT1); 100 µM): 35±8%; inhibition at 8 µM [2]: 91.7%
2 | CN1CCN(c2nc(NC3CCN(Cc4ccccc4)CC3)c3ccccc3n2)CC1 [Compound 5] | 0% | 30 ± 8% | 0% | 14 ± 3% |  | 
3 | c1ccc(CN2CCC(Nc3nc(N4CCCCC4)nc4ccccc34)CC2)cc1 [Compound 6] | 0% | 57 ± 8% | 14 ± 6% | 33 ± 6% |  | inhibition at 3.2 µM ([1]; 3.2 µM compound): 11 ± 5%
4 | c1ccc(CN2CCC(Nc3nc(N4CCCCCC4)nc4ccccc34)CC2)cc1 [Compound 7] | 0% | 57 ± 3% | 16 ± 2% | 32 ± 3% | 119 to 122 °C | inhibition at 3.2 µM ([1]; 3.2 µM compound): 7 ± 2%
5 | CC1CCN(c2nc(NC3CCN(Cc4ccccc4)CC3)c3ccccc3n2)CC1 [Compound 8] | 0% | 53 ± 3% | 14 ± 2% | 35 ± 5% | 106 to 108 °C | inhibition at 3.2 µM ([1]; 3.2 µM compound): 7 ± 1%
6 | CC1CCCCN1c1nc(NC2CCN(Cc3ccccc3)CC2)c2ccccc2n1 (centres unmarked) [Compound 9] | 0% | 47 ± 5% | 5 ± 2% | 14 ± 7% | 128 to 129 °C | inhibition at 3.2 µM ([1]; 3.2 µM compound): 1 ± 1%
7 | c1ccc(CN2CCC(Nc3nc(N4CCSCC4)nc4ccccc34)CC2)cc1 [Compound 11] | 0% | 42 ± 3% | 8 ± 2% |  | 155 to 157 °C | 
8 | c1ccc(CN2CCC(Nc3nc(N4CCOCC4)nc4ccccc34)CC2)cc1 [Compound 12, N-(1-benzylpiperidin-4-yl)-2-morpholinoquinazolin-4-amine] | 0% | 7% |  |  |  | 
9 | O=C(c1ccccc1)N1CCN(c2nc(NC3CCN(Cc4ccccc4)CC3)c3ccccc3n2)CC1 [Compound 15] | 0% | 23 ± 2% |  |  | 213 to 215 °C | 
10 | OCCNc1nc(NC2CCN(Cc3ccccc3)CC2)c2ccccc2n1 [Compound 16] | 0% | 37 ± 4% | 8 ± 3% |  | 116 to 118 °C | 
11 | CN(C)CCNc1nc(NC2CCN(Cc3ccccc3)CC2)c2ccccc2n1 [Compound 17] | 0% | 10% |  |  | 120 to 122 °C | 
12 | CN(C)CCCNc1nc(NC2CCN(Cc3ccccc3)CC2)c2ccccc2n1 [Compound 18] | 0% | 8 ± 1% |  |  |  | 
13 | Cc1cc(Nc2ccc(NC(=O)c3ccc(Nc4ccnc5ccccc45)cc3)cc2)nc(N)n1 [SGI-1027, reference compound] |  |  |  |  |  | % inhibition ± SD hDNMT1 (human DNMT1 (hDNMT1)): 100±0.1%; % inhibition ± SD hDNMT3A ([1]; 3.2 µM compound): 80±4%; % inhibition ± SD hDNMT3A ([1]; 10 µM compound): 72±6%; % inhibition ± SD hDNMT3A ([1]; 32 µM compound): 75±7%; IC50 (U-937 cells): 1.7 ± 1.1 µM; IC50 (RAJI cells): 9.1 ± 0.8 µM; fold-induction of the luciferase signal (CMV-luc) ([3]; 5 µM): 17 fold; fold-induction of the luciferase signal (CMV-luc) ([3]; 10 µM): 10 fold; fold-induction of the luciferase signal (CMV-luc) ([3]; 25 µM): no induction
14 | CN1C(=O)[C@@]23C[C@]4([C@]56C[C@@]78SS[C@@](CO)(C(=O)N7[C@H]5Nc5ccccc56)N(C)C8=O)c5ccccc5N[C@@H]4N2C(=O)[C@]1(CO)SS3 [chaetocin, reference compound] |  |  |  |  |  | IC50 (Human G9a): 8 µM
